Literature values in patent publication US20170343557A1, “USE OF 5-METHOXYTRYPTOPHAN AS DIAGNOSTIC AGENT OF INFLAMMATORY DISEASES” (NATIONAL HEALTH RESEARCH INSTITUTES, priority 2014, published 2017).

Legend:
[1] = test system: COX-2 expression in fibroblasts and cancer cells
[2] = test system: cancer cell migration and invasion
[3] = test system: cancer metastasis in a xenograft model

COc1ccc2[nH]cc(C[C@H](N)C(=O)O)c2c1 [5-MTP, 5-methoxytryptophan]
Proinflammatory mediator-induced COX-2 expression [1]: inhibits
Cancer cell migration and invasion [2]: reduces
Cancer metastasis [3]: reduces
